Experimental data: patent EP0011845A2, “Antiseborrhoeic hair treatment composition” (Henkel Kommanditgesellschaft auf Aktien, priority 1978, dated 1980)

Tested on: Meerschweinchen
Test: Anti-dandruff test: oleic-acid-induced scaling and skin thickening on shaved guinea pig back
Type: in vivo
Details: 5 % test substance with 5 % Ölsäure in 70 % ethanol, topical on the back, 60 min exposure, 4 consecutive days, evaluated on day 7, inhibition vs skin treated with oleic acid only; for Hautdickenmessung Hemmung %: skin fold thickness by Cutimeter nach Götze; for Hautschuppenmessung Hemmung %: visual scaling score on scale 0-4
Excerpt: Die Prüfung auf Antischuppenwirkung wurde in folgender Weise durchgeführt, wobei B) als mit Natronlauge auf einen pH-Wert von 6 neutralisiertes Produkt zum Einsatz gelangte:
Die Prüfsubstanzen wurden in 5 %iger Konzentration zusammen mit 5 % Ölsäure in 70 %igem Ethanol gelöst und in alternierender Reihenfolge und in rotierendem Schema auf den Rücken junger, geschorener weiblicher Meerschweinchen im Gewicht von 600 ± 50 g aufgetragen. Die Einwirkungszeit der Substanzen wurde dabei auf 60 Minuten begrenzt, da diese Zeit ausreichte, um eine Wirkung zu erzielen. Anschließend wurden die Tiere mit warmem Wasser 30 Sekunden lang abgeduscht. Die Reihenfolge der Tiere bei der Applikation wechselte dabei täglich, um Differenzen in der Einwirkungszeit zwischen dem ersten und letzten Tier der Gruppe auf ein Minimum zu begrenzen. Diese Behandlung geschah an vier aufeinanderfolgenden Tagen, darauf folgte eine Ruhezeit (Entwicklungszeit von drei Tagen). Am siebenten Tag wurde ausgewertet, und zwar a) kutimetrisch auf Hautfaltendicke instrumentell mit dem Cutimeter nach Götze und b) visuell auf Schuppenbildung bzw. Hemmung nach einer 4-Punkte-Skala folgender Definition: • 0 = keine Schuppen • 1 = leichte Schuppen • 2 = kräftige Schuppen • 3 = starke Schuppen mit Rötung • 4 = Krusten mit Aufrichten der Haare.
Die Versuchsgruppen bestanden aus jeweils 6 Tieren. Die Kollektive wurden mathematisch auf Homogenität geprüft und nach Eliminierung signifikant abweichender Tiere wurden Mittelwert und Streuung für jede Substanz berechnet. Diese wurden in Beziehung gesetzt zu den Werten der nur mit 5 % Ölsäure in 70 %igem Ethanol behandelten Haut und daraus die Signifikanz der Hemmwirkung bestimmt. Das Ergebnis der Prüfung ist der nachstehenden Tabelle 1 zu entnehmen.

Row | SMILES | Hautdickenmessung Hemmung % | Hautschuppenmessung Hemmung %
1 | CCOC(=O)CCCCCNC(=O)c1cc(OC)c(OC)c(OC)c1 [Wirkstoff A, N-(3,4,5-Trimethoxy-benzoyl)-6-amino-capronsäure-ethylester] | 15% | 100%
2 | COc1cc(C(=O)NCCCCCC(=O)O)cc(OC)c1OC [Wirkstoff B, N-(3,4,5-Trimethoxy-benzoyl)-6-amino-carbonsäure] | 10% | 50%
